SMILES strings stand for the structures.

From patent US20260317356A1, “SMALL MOLECULE MODULATORS OF OGG1” (AZKARRA THERAPEUTICS, INC., priority 2023, published 2026) come the findings set out here.

Sequence of hOGG1 (O15527 12-323): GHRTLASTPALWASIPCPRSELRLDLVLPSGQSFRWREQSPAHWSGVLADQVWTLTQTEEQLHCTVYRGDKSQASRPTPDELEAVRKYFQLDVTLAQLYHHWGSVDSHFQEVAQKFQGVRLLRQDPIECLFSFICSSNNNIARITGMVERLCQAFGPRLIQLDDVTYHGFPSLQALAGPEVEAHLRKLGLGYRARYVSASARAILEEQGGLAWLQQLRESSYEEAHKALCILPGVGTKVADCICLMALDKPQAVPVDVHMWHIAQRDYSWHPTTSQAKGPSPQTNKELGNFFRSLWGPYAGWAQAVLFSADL

This test addresses hOGG1 (Homo sapiens, UniProt O15527). The experiment in a line: Biochemical fluorescence assay to measure enzymatic activity of hOGG1 (OGG1/APEX IC50). Set-up: Protein His-hOGG1 (12-323) was prepared; His (N); host or cells: E. coli. Conditions: 1 nM OGG1+2 nM APEX+6 nM dsDNA (8-oxo-dG substrate); pH 7.5; RT 40 min; read-out: OGG1/APEX IC50. In a few lines:
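His-hOGG1 (12-323, E. coli) at 1 nM with 2 nM hAPE1/APEX1, preincubated 20 min RT with compound. Then 6 nM 8-oxo-dG dsDNA substrate added, 40 min at RT in Tris pH 7.5, 100 mM KCl. TAMRA fluorescence (Ex520/Em600) converted to % inhibition vs controls; IC50 from 3-parameter fit of 10-point curve.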
As to `C=Cc1cc(C)c2c(c1)NC(=O)N([C@H]1CC[C@@H](C(=O)Nc3ccc(C)c(OC)c3)CC1)C2` [Example 83, (1s,4s)-N-(3-methoxy-4-methylphenyl)-4-(5-methyl-2-oxo-7-vinyl-1,2-dihydroquinazolin-3(4H)-yl)cyclohexanecarboxamide], the IC50 lay within 100 to 1000 nM.
For `COc1cc(NC(=O)[C@H]2CC[C@@H](N3Cc4c(C)cc(C(=O)NCCN(C)C)cc4NC3=O)CC2)ccc1C` [Example 84, N-(2-(dimethylamino)ethyl)-3-((1s,4s)-4-(3-methoxy-4-methylphenylcarbamoyl)cyclohexyl)-5-methyl-2-oxo-1,2,3,4-tetrahydroquinazoline-7-carboxamide], the IC50 was under 100 nM.
Next, `COc1cc(NC(=O)[C@H]2CC[C@H](N3Cc4c(C)cc(NCCN(C)C)cc4NC3=O)CC2)ccc1C` [Example 85, (1r,4r)-4-(7-(2-(dimethylamino)ethylamino)-5-methyl-2-oxo-1,2-dihydroquinazolin-3(4H)-yl)-N-(3-methoxy-4-methylphenyl)cyclohexanecarboxamide]: 100 to 1000 nM.
Next, `COc1ccc(NC(=O)[C@H]2CC[C@@H](N3Cc4c(C)cccc4NC3=O)CC2)cc1C#N` [Example 86, (1s,4s)-N-(3-cyano-4-methoxyphenyl)-4-(5-methyl-2-oxo-1,2-dihydroquinazolin-3(4H)-yl)cyclohexanecarboxamide]: under 100 nM.
Consider `COc1ccc(NC(=O)[C@H]2CC[C@@H](N3Cc4c(C)cccc4NC3=O)CC2)cc1C` [Example 87, (1s,4s)-N-(4-methoxy-3-methylphenyl)-4-(5-methyl-2-oxo-1,2-dihydroquinazolin-3(4H)-yl)cyclohexanecarboxamide], for which the IC50 was under 100 nM.
As for `COc1ccc(NC(=O)[C@H]2CC[C@@H](N3Cc4c(C)cccc4NC3=O)CC2)cc1Cl` [Example 88, (1s,4s)-N-(3-chloro-4-methoxyphenyl)-4-(5-methyl-2-oxo-1,2-dihydroquinazolin-3(4H)-yl)cyclohexanecarboxamide], the IC50 is under 100 nM.
`COc1ccc(NC(=O)[C@H]2CC[C@@H](N3Cc4c(C)cccc4NC3=O)CC2)cc1F` [Example 89, (1s,4s)-N-(3-fluoro-4-methoxyphenyl)-4-(5-methyl-2-oxo-1,2-dihydroquinazolin-3(4H)-yl)cyclohexanecarboxamide]: the IC50 lay within 100 to 1000 nM.
Consider `Cc1cccc2c1CN([C@H]1CC[C@@H](C(=O)Nc3ccc(Cl)c(F)c3)CC1)C(=O)N2` [Example 90, (1s,4s)-N-(4-chloro-3-fluorophenyl)-4-(5-methyl-2-oxo-1,2-dihydroquinazolin-3(4H)-yl)cyclohexanecarboxamide], for which the IC50 lay within 100 to 1000 nM.
Regarding `COc1cc(NC(=O)[C@H]2CC[C@@H](N3Cc4c(Br)cncc4NC3=O)CC2)ccc1C` [Example 91, (1s,4s)-4-(5-bromo-2-oxo-1,2-dihydropyrido[3,4-d]pyrimidin-3(4H)-yl)-N-(3-methoxy-4-methylphenyl)cyclohexanecarboxamide], the IC50 is under 100 nM.
In the case of `CCc1ccc(NC(=O)[C@H]2CC[C@@H](N3Cc4c(C)cccc4NC3=O)CC2)cc1C` [Example 93, (1s,4s)-N-(4-ethyl-3-methylphenyl)-4-(5-methyl-2-oxo-1,2-dihydroquinazolin-3(4H)-yl)cyclohexanecarboxamide], the IC50 was 100 to 1000 nM.
On to `CCc1ccc(NC(=O)[C@H]2CC[C@@H](N3Cc4c(C)cccc4NC3=O)CC2)cc1C#N` [Example 94, (1s,4s)-N-(3-cyano-4-ethylphenyl)-4-(5-methyl-2-oxo-1,2-dihydroquinazolin-3(4H)-yl)cyclohexanecarboxamide], for which the IC50 lay within 100 to 1000 nM.
On to `CCc1ccc(NC(=O)[C@H]2CC[C@@H](N3Cc4c(C)cccc4NC3=O)CC2)cc1OC` [Example 95, (1s,4s)-N-(4-ethyl-3-methoxyphenyl)-4-(5-methyl-2-oxo-1,2-dihydroquinazolin-3(4H)-yl)cyclohexanecarboxamide], for which the IC50 fell in the range of 100 to 1000 nM.
As to `COc1cc(NC(=O)[C@H]2CC[C@@H](N3Cc4c(C)cc(NCCN(C)C)cc4NC3=O)CC2)ccc1C` [Example 96, (1s,4s)-4-(7-(2-(dimethylamino)ethylamino)-5-methyl-2-oxo-1,2-dihydroquinazolin-3(4H)-yl)-N-(3-methoxy-4-methylphenyl)cyclohexanecarboxamide], the IC50 was under 100 nM.
Take `COc1ccc(NC(=O)[C@H]2CC[C@@H](N3Cc4c(C)cc(NCCN(C)C)cc4NC3=O)CC2)cc1Cl` [Example 100, (1s,4s)-N-(3-chloro-4-methoxyphenyl)-4-(7-(2-(dimethylamino)ethylamino)-5-methyl-2-oxo-1,2-dihydroquinazolin-3(4H)-yl)cyclohexanecarboxamide]: the IC50 was under 100 nM.
As for `Cc1cccc2c1CN([C@H]1CC[C@@H](C(=O)Nc3ccc4nc[nH]c4c3)CC1)C(=O)N2` [Example 109, (1s,4s)-N-(1H-benzo[d]imidazol-6-yl)-4-(5-methyl-2-oxo-1,2-dihydroquinazolin-3(4H)-yl)cyclohexanecarboxamide], the IC50 was 1000 to 10000 nM.
Turning to `COc1cc(NC(=O)[C@H]2CC[C@H](N3Cc4c(C)cc(C5COC5)cc4NC3=O)CC2)ccc1C` [Example 110, (1r,4r)-N-(3-methoxy-4-methylphenyl)-4-(5-methyl-7-(oxetan-3-yl)-2-oxo-1,2-dihydroquinazolin-3(4H)-yl)cyclohexanecarboxamide], the IC50 is 1000 to 10000 nM.
Take `COc1cc(NC(=O)[C@H]2CC[C@H](N3Cc4c(C)cc(COC5CNC5)cc4NC3=O)CC2)ccc1C` [Example 111, (1r,4r)-4-(7-((azetidin-3-yloxy)methyl)-5-methyl-2-oxo-1,2-dihydroquinazolin-3(4H)-yl)-N-(3-methoxy-4-methylphenyl)cyclohexanecarboxamide]: the IC50 was over 10000 nM.
On to `Cc1cccc2c1CN([C@H]1CC[C@@H](C(=O)Nc3cc4ccccc4[nH]3)CC1)C(=O)N2` [Example 112, (1s,4s)-N-(1H-indol-2-yl)-4-(5-methyl-2-oxo-1,2-dihydroquinazolin-3(4H)-yl)cyclohexanecarboxamide], for which the IC50 was under 100 nM.
As for `Cc1cccc2c1CN([C@H]1CC[C@@H](C(=O)Nc3ccc4cc[nH]c4c3)CC1)C(=O)N2` [Example 113, (1s,4s)-N-(1H-indol-6-yl)-4-(5-methyl-2-oxo-1,2-dihydroquinazolin-3(4H)-yl)cyclohexanecarboxamide], the IC50 fell in the range of 100 to 1000 nM.
With `Cc1cccc2c1CN([C@H]1CC[C@@H](C(=O)Nc3ccc4oncc4c3)CC1)C(=O)N2` [Example 114, (1s,4s)-N-(benzo[d]isoxazol-5-yl)-4-(5-methyl-2-oxo-1,2-dihydroquinazolin-3(4H)-yl)cyclohexanecarboxamide], the IC50 was 1000 to 10000 nM.
Take `COc1cc(NC(=O)[C@H]2CC[C@@H](N3Cc4c(C)cccc4OC3=O)CC2)ccc1C` [Example 115, (1s,4s)-N-(3-methoxy-4-methylphenyl)-4-(5-methyl-2-oxo-2H-benzo[e][1,3]oxazin-3(4H)-yl)cyclohexane-1-carboxamide]: the IC50 is 100 to 1000 nM.
In the case of `COc1cc(NC(=O)[C@H]2CC[C@@H](N3Cc4c(C)cc(O)cc4OC3=O)CC2)ccc1C` [Example 116, (1s,4s)-4-(7-hydroxy-5-methyl-2-oxo-2H-benzo[e][1,3]oxazin-3(4H)-yl)-N-(3-methoxy-4-methylphenyl)cyclohexane-1-carboxamide], the IC50 fell in the range of 100 to 1000 nM.
In the case of `COc1cc(NC(=O)[C@H]2CC[C@@H](N3Cc4c(C)cc(OCCN(C)C)cc4OC3=O)CC2)ccc1C` [Example 117, (1s,4s)-4-(7-(2-(dimethylamino)ethoxy)-5-methyl-2-oxo-2H-benzo[e][1,3]oxazin-3(4H)-yl)-N-(3-methoxy-4-methylphenyl)cyclohexane-1-carboxamide], the IC50 is 100 to 1000 nM.
The same measure for `COc1cc(NC(=O)[C@H]2CC[C@@H](n3[nH]c4c(C)cccc4c3=O)CC2)ccc1C` [Example 118, (1s,4s)-N-(3-Methoxy-4-methylphenyl)-4-(7-methyl-3-oxo-1,3-dihydro-2H-indazol-2-yl)cyclohexane-1-carboxamide]: under 100 nM; for `COc1cc(NC(=O)[C@H]2CC[C@@H](n3[nH]c4c(C)cc(F)cc4c3=O)CC2)ccc1C` [Example 119, (1s,4s)-4-(5-Fluoro-7-methyl-3-oxo-1,3-dihydro-2H-indazol-2-yl)-N-(3-methoxy-4-methylphenyl)cyclohexane-1-carboxamide]: 100 to 1000 nM.
With `COc1cc(NC(=O)[C@H]2CC[C@@H](N3Cc4c(C)cccc4C3=O)CC2)ccc1Br` [Example 120, (1s,4s)-N-(4-Bromo-3-methoxyphenyl)-4-(4-methyl-1-oxoisoindolin-2-yl)cyclohexane-1-carboxamide], the IC50 was in the range of 100 to 1000 nM.
Turning to `COc1cc(NC(=O)[C@H]2CC[C@@H](N3Cc4c(C)cccc4C3=O)CC2)ccc1C1CC1` [Example 121, (1s,4s)-N-(4-Cyclopropyl-3-methoxyphenyl)-4-(4-methyl-1-oxoisoindolin-2-yl)cyclohexane-1-carboxamide], the IC50 is 1000 to 10000 nM.
For `C=Cc1ccc(NC(=O)[C@H]2CC[C@@H](N3Cc4c(C)cccc4C3=O)CC2)cc1OC` [Example 122, (1s,4s)-N-(3-Methoxy-4-vinylphenyl)-4-(4-methyl-1-oxoisoindolin-2-yl)cyclohexane-1-carboxamide], the IC50 was 100 to 1000 nM.
Next, `CCc1ccc(NC(=O)[C@H]2CC[C@@H](N3Cc4c(C)cccc4C3=O)CC2)cc1OC` [Example 123, (1s,4s)-N-(4-Ethyl-3-methoxyphenyl)-4-(4-methyl-1-oxoisoindolin-2-yl)cyclohexane-1-carboxamide]: 100 to 1000 nM; `Cc1ccc(NC(=O)[C@H]2CC[C@@H](N3Cc4c(C)cccc4C3=O)CC2)cc1Br` [Example 124, (1s,4s)-N-(3-Bromo-4-methylphenyl)-4-(4-methyl-1-oxoisoindolin-2-yl)cyclohexane-1-carboxamide]: 100 to 1000 nM.
